These results are taken from paper PMC7179297, “Preclinical Antimalarial Combination Study of M5717, a Plasmodium falciparum Elongation Factor 2 Inhibitor, and Pyronaridine, a Hemozoin Formation Inhibitor” (Antimicrobial Agents and Chemotherapy, 2020).

Data set [1] deals with P. falciparum Pf3D70087/N9. The data set is described as follows: Murine P. falciparum SCID model, efficacy and recrudescence. The settings on record: for Parasitemia Day 3: day 3 = day of treatment. The format is in vivo, Plasmodium falciparum. The protocol: Compound efficacy was assessed in the murine P. falciparum SCID model essentially as described by Jimenez-Díaz et al. ([20]). Briefly, alone or in combination, M5717 (succinate salt by Merck KGaA [MSC2576186-B4]) and pyronaridine (tetraphosphate salt, Sigma-Aldrich [P0049]) were formulated in 7% Tween80, 3% ethanol and administered to a cohort of age-matched female immunodeficient NOD-scid IL-2Rγ^null mice (Jackson Laboratory, Bar Harbor, ME). These mice had been previously engrafted with human erythrocytes (generously provided by the blood bank in Zürich, Switzerland). Prior to compound treatment, mice were intravenously infected with 2 × 10^7 P. falciparum Pf3D7^0087/N9 -infected erythrocytes (day 0) ([30]). On day 3 after infection, mice, in groups of 2 to 5, were randomly allocated to treatments that were administered with a single oral gavage at 10 ml/kg (Table 2 and Fig. 2). Parasitemia was measured by microscopy. Chimerism was monitored by flow cytometry using an anti-murine erythrocyte TER119 monoclonal antibody (Pharmingen, San Diego, CA) and SYTO-16 and then analyzed by flow cytometry in serial blood samples (2 μl) collected every 2 to 3 days until the completion of the experiment (Table 2, day 60 and Fig. 2, day 80). Parasite recrudescence was detected by microscopy. Once parasitemia exceeded 0.5%, then 100 to 500 μl of blood was collected and stored at –80°C for subsequent sequence analysis. Animals received a second treatment with the same dose and if applicable the same combination of compounds as previously administered in that dose group (Fig. 2). Efficacy was again monitored by microscopy. If recrudescence occurred again then new blood samples were stored at –80°C.
Time-to-recrudescence data were analyzed using the Kaplan-Meier method. Log-rank test was performed for two-group comparisons. Kaplan-Meier curves and log-rank test P values, as well as median estimates for time to recrudescence, are presented (SAS, Version 9.4. Cary, NC: SAS Institute Inc.; 2014).

The subject of data set [2] is P. falciparum NF54 strain. The data set is described as follows: [3H]hypoxanthine incorporation assay, individual drugs. It is filed as cell-based. The settings on record: Plasmodium falciparum, 72 h. The method, then: IC50 and drug interaction studies were performed as previously described ([27], [28]). […] Cultures were harvested onto glass fiber filters, washed, and the radioactivity was counted using a MicroBetaplate liquid scintillation counter and recorded as counts per minute (cpm) per well. Results are expressed as a percentage of the untreated controls (see the supplemental material for more details). page 2: 25 In vitro isobolograms 26 Compounds were tested against intraerythrocytic forms of P. falciparum derived from asynchronous stock cultures 27 of lab strain NF54 (Schiphol airport strain of unknown origin), as previously described.i,ii The culture medium was […] 29 mM HEPES, 25 mM NaHCO3 (pH 7.3), 0.36 mM hypoxanthine and 100 μg/mL neomycin. Human type A+ 30 erythrocytes served as host cells. […] 31 in humidified modular chambers. Testing of the individual drugs was carried out in 96-well microtiter plates. The 32 compounds were dissolved in DMSO (10 mg/mL), prediluted in hypoxanthine-free culture medium and titrated in […] After addition of an equal volume of parasite culture with a parasitemia of […] Parasite growth was measured by the incorporation of radiolabelled [3H]hypoxanthine (0.25 µCi in […] 37 assay duration) prior to the termination of the test. Cultures were harvested onto glass-fiber filters and washed with 38 distilled water. The radioactivity was counted using a MicroBetaplate liquid scintillation counter (Wallac, Zürich, 39 Switzerland) and the results recorded as counts per minute (cpm) per well at each drug concentration and expressed 40 as percentage of the untreated controls. Fifty percent inhibitory concentrations (IC50) were determined by linear 41 interpolation.v 42 43 For data interpretation, the IC50s of the drugs in combination were expressed as fractions of the IC50s of the drugs 44 alone. These fractions were called “Fractional Inhibitory Concentrations” (FIC) for drug A and for drug B, 45 respectively. 46 FIC Drug A = IC50 A (B) IC50 A […] 49 50 Formulation 51 Pyronaridine (tetraphosphate salt) and […] (succinate salt) were solubilized in a vehicle consisting of 70% […] 54 55 2

Setting [3] is: M5717 3 mg/kg single oral dose (entry 1).
Setting [4] is: M5717 6 mg/kg single oral dose (entry 2).
[5] abbreviates: M5717 12 mg/kg single oral dose (entry 3).
[6] abbreviates: M5717 30 mg/kg single oral dose (entry 4).
Setting [7] is: pyronaridine 6 mg/kg single oral dose (entry 5).
[8] abbreviates: pyronaridine 12 mg/kg single oral dose (entry 6).
[9] abbreviates: pyronaridine 12 mg/kg single oral dose (entry 6), LLQ <0.01%.
Where [10] appears, read: pyronaridine 36 mg/kg single oral dose (entry 7).
The mark [11] stands for this setting: pyronaridine 36 mg/kg single oral dose (entry 7), LLQ <0.01%.

Where “and” joins values, the source holds several entries; their conditions need not be identical. Equal values may be shown once. Marks after values point to notes of the source that are not given here. A value given as a limit tells only on which side of the number the result lay.

As to `O=C(NCCN1CCCC1)c1cc(-c2ccc(CN3CCOCC3)cc2)nc2ccc(F)cc12` [M5717], the “Parasitemia Day 4” value in data set [1] (setting [3]) is listed as 0.65%; in data set [1] (setting [4]), 1.4%; in data set [1] (setting [5]), 0.58%; in data set [1] (setting [6]), 0.73%. Also, the “Parasitemia Day 5” value is recorded as 0.49% in data set [1] (setting [3]), 1.03% in data set [1] (setting [4]), 0.53% in data set [1] (setting [5]) and 0.54% in data set [1] (setting [6]). For the same molecule, the “Parasitemia Day 6” value is listed as 0.19% in data set [1] (setting [3]), 0.46% in data set [1] (setting [4]), 0.11% in data set [1] (setting [5]) and 0.21% in data set [1] (setting [6]). The “Mean DoR (day of recrudescence)” value in data set [1] (M5717 3 mg/kg single oral dose (entry 1), uncorrected) turned out to be 6 days postinfection; in data set [1] (M5717 6 mg/kg single oral dose (entry 2), uncorrected), 17 days postinfection; in data set [1] (M5717 12 mg/kg single oral dose (entry 3), uncorrected) it was 24 days postinfection; in data set [1] (M5717 30 mg/kg single oral dose (entry 4), uncorrected), 24 days postinfection. Further, the “Parasitemia Day 3” value is 1.2% in data set [1] (setting [3]), 1.26% in data set [1] (setting [4]), 0.81% in data set [1] (setting [5]) and 0.89% in data set [1] (setting [6]). Besides, the “mice in which resistance evolved” value in data set [1] (M5717 12 mg/kg arm) is 5/5. Also, the “median time to recrudescence” value is 19 days in data set [1] (M5717 12 mg/kg single oral dose, all mice n = 5, Kaplan-Meier, 12 mg/kg); 18 days in data set [1] (M5717 12 mg/kg, mice showing no response to retreatment (M1, M2, M3, n = 3)); 23.5 days in data set [1] (M5717 12 mg/kg, mice with later recrudescence (M4 and M5, n = 2)). Also, in data set [1] (M5717 12 mg/kg single oral dose, n = 5 (Fig. 2A)), the “day postinfection at which LLQ was reached” value is 8 days. In addition, the “response to retreatment with the same dosing regimen” value is on record as “not susceptible” in data set [1] (M5717 12 mg/kg, mice with early recrudescence (D17, D18, D19)) and “responded partially” in data set [1] (M5717 12 mg/kg, mice with later recrudescence (D23, D24)). Further, the “Parasitemia for the individual mice at blood draw” value in data set [1] (M5717 1x30 mg/kg single oral dose, recrudescent samples 1.1 and 1.2) is 3.25% and 0.50%. Also, the “Recrudescence day post infection” value in data set [1] (M5717 1x30 mg/kg single oral dose, samples 1.1 and 1.2) is given as 24. In addition, the “breakpoint between both phases of biphasic clearance of parasitemia” value in data set [1] (M5717 alone at 3, 6, 12 and 30 mg/kg) is on record as “around 48 h”. The EC50 in data set [2] is 0.3 nM.
In the case of `COc1ccc2nc3cc(Cl)ccc3c(Nc3cc(CN4CCCC4)c(O)c(CN4CCCC4)c3)c2n1` [pyronaridine], the “Parasitemia Day 4” value in data set [1] (setting [7]) turned out to be 0.09%; in data set [1] (setting [8]), 0.13%; in data set [1] (setting [10]), 0.12%. The “Parasitemia Day 5” value is recorded as 0.01% in data set [1] (setting [7]), 0.00^d % in data set [1] (setting [9]) and 0.00^d % in data set [1] (setting [11]). Besides, the “Parasitemia Day 6” value in data set [1] (pyronaridine 6 mg/kg single oral dose (entry 5), LLQ <0.01%) is recorded as 0.00^d %; in data set [1] (setting [9]) it was 0.00^d %; in data set [1] (setting [11]) it was 0.00^d %. The entries for the “Parasitemia Day 3” value in data set [1] (setting [7]), in data set [1] (setting [8]) and in data set [1] (setting [10]) were 0.89%, 1.51% and 1.61%, respectively. Besides, the “Mean DoR (day of recrudescence)” value in data set [1] (pyronaridine 12 mg/kg single oral dose (entry 6), uncorrected) was 35 days postinfection; in data set [1] (pyronaridine 36 mg/kg single oral dose (entry 7), experiment ended at day 60 with parasitemia <0.01%), ≥60^e days postinfection. Further, the concentration giving a half-maximal response (EC50) in data set [2] was 3.5 nM.
